Calls of active or inactive are those of the source. No cut-off for these calls is given here.

The first assay deals with Hypoxia-inducible factor 1-alpha (Homo sapiens, UniProt Q16665). In words: Inhibition of interaction between fluorescein-labeled proline hydroxylated human HIFalpha (556 to 575) and human VHL-human elongin B-human elongin C complex expressed in Escherichia coli by fluorescence polarization assay. Background: Fluorescence polarisation rises when a labelled molecule tumbles more slowly, as on binding a larger partner.
Hypoxia-inducible factor 1-alpha, sequence (Q16665 whole entry): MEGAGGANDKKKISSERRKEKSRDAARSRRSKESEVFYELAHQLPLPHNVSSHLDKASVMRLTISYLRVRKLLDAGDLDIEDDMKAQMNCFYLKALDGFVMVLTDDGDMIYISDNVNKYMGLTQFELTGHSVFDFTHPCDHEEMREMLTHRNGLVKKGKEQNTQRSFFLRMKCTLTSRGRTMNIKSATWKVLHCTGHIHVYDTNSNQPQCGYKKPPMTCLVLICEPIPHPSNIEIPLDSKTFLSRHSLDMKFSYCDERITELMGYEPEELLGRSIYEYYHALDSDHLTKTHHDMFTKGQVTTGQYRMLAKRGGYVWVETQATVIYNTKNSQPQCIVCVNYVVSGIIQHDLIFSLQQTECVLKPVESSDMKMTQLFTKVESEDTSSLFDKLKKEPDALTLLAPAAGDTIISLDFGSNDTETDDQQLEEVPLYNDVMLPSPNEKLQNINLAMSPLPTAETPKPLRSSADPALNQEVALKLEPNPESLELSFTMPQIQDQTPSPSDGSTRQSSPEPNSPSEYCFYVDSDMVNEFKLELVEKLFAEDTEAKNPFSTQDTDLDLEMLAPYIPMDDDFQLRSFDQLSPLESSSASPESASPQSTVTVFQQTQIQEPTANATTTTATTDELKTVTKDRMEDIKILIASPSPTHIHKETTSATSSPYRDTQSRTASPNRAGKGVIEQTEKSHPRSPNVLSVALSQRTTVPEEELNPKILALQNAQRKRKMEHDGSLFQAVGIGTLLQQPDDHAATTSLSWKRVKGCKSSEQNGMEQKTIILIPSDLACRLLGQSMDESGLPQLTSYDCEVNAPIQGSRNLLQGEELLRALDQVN
As usually defined, the Ki is a dissociation constant, usually derived from enzyme kinetics or from competition with a known ligand. Low readings indicate tighter binding, high ones weaker binding. The molecule `CC[C@@H](C)[C@H](NC(=O)[C@H](Cc1ccc(O)cc1)NC(=O)[C@H](CC(C)C)NC(=O)[C@H](C)NC(=O)[C@H](CC(C)C)NC(=O)[C@H](C)NC(=O)[C@H](CCC(=O)O)NC(=O)[C@H](CC(C)C)NC(=O)[C@H](CC(=O)O)NC(=O)[C@H](CC(C)C)NC(=O)[C@@H](N)CC(=O)O)C(=O)N1CCC[C@H]1C(=O)N[C@@H](C)C(=O)N[C@@H](CC(=O)O)C(=O)N[C@@H](CC(=O)O)C(=O)N[C@@H](CC(=O)O)C(=O)N[C@@H](Cc1ccccc1)C(=O)N[C@@H](CCC(N)=O)C(=O)N[C@@H](CC(C)C)C(=O)N[C@@H](CCCNC(=N)N)C(N)=O` displayed a Ki of 58 µM.

In turn, `CC[C@@H](C)[C@H](NC(=O)[C@H](C)NC(=O)[C@H](CC(C)C)NC(=O)[C@H](C)NC(=O)[C@H](CCC(=O)O)NC(=O)[C@H](CC(C)C)NC(=O)[C@H](CC(=O)O)NC(=O)[C@H](CC(C)C)NC(=O)[C@@H](N)CC(=O)O)C(=O)N[C@@H](Cc1ccc(O)cc1)C(=O)N[C@H](C(=O)N1CCC[C@H]1C(=O)N[C@@H](C)C(=O)N[C@@H](CC(=O)O)C(=O)N[C@@H](CC(=O)O)C(=O)N[C@@H](CC(=O)O)C(=O)N[C@@H](Cc1ccccc1)C(=O)N[C@@H](CCC(N)=O)C(=O)N[C@@H](CC(C)C)C(=O)N[C@@H](CCCN=C(N)N)C(N)=O)[C@H](C)CC` gave a Ki of 50 µM.

Turning to `CC[C@@H](C)[C@H](NC(=O)[C@H](Cc1ccc(O)cc1)NC(=O)[C@@H](NC(=O)[C@H](C)NC(=O)[C@H](CC(C)C)NC(=O)[C@H](C)NC(=O)[C@H](CCC(=O)O)NC(=O)[C@H](CC(C)C)NC(=O)[C@H](CC(=O)O)NC(=O)[C@H](CC(C)C)NC(=O)[C@@H](N)CC(=O)O)[C@H](C)O)C(=O)N1CCC[C@H]1C(=O)N[C@@H](C)C(=O)N[C@@H](CC(=O)O)C(=O)N[C@@H](CC(=O)O)C(=O)N[C@@H](CC(=O)O)C(=O)N[C@@H](Cc1ccccc1)C(=O)N[C@@H](CCC(N)=O)C(=O)N[C@@H](CC(C)C)C(=O)N[C@@H](CCCN=C(N)N)C(N)=O`, affinity was put at a Ki of 18 µM.

`CC[C@@H](C)[C@H](NC(=O)[C@H](Cc1ccc(O)cc1)NC(=O)[C@H](CC(=O)O)NC(=O)[C@H](C)NC(=O)[C@H](CC(C)C)NC(=O)[C@H](C)NC(=O)[C@H](CCC(=O)O)NC(=O)[C@H](CC(C)C)NC(=O)[C@H](CC(=O)O)NC(=O)[C@H](CC(C)C)NC(=O)[C@@H](N)CC(=O)O)C(=O)N1CCC[C@H]1C(=O)N[C@@H](C)C(=O)N[C@@H](CC(=O)O)C(=O)N[C@@H](CC(=O)O)C(=O)N[C@@H](CC(=O)O)C(=O)N[C@@H](Cc1ccccc1)C(=O)N[C@@H](CCC(N)=O)C(=O)N[C@@H](CC(C)C)C(=O)N[C@@H](CCCNC(=N)N)C(N)=O` came in with a Ki of 15 µM.

In turn, `CC[C@@H](C)[C@H](NC(=O)[C@H](Cc1ccc(O)cc1)NC(=O)[C@H](CCO)NC(=O)[C@H](C)NC(=O)[C@H](CC(C)C)NC(=O)[C@H](C)NC(=O)[C@H](CCC(=O)O)NC(=O)[C@H](CC(C)C)NC(=O)[C@H](CC(=O)O)NC(=O)[C@H](CC(C)C)NC(=O)[C@@H](N)CC(=O)O)C(=O)N1CCC[C@H]1C(=O)N[C@@H](C)C(=O)N[C@@H](CC(=O)O)C(=O)N[C@@H](CC(=O)O)C(=O)N[C@@H](CC(=O)O)C(=O)N[C@@H](Cc1ccccc1)C(=O)N[C@@H](CCC(N)=O)C(=O)N[C@@H](CC(C)C)C(=O)N[C@@H](CCCN=C(N)N)C(N)=O` came in with a Ki of 3.4 µM.

Regarding `CC[C@@H](C)[C@H](NC(=O)[C@H](Cc1ccc(O)cc1)NC(=O)[C@@H]1CCCN1C(=O)[C@H](C)NC(=O)[C@H](CC(C)C)NC(=O)[C@H](C)NC(=O)[C@H](CCC(=O)O)NC(=O)[C@H](CC(C)C)NC(=O)[C@H](CC(=O)O)NC(=O)[C@H](CC(C)C)NC(=O)[C@@H](N)CC(=O)O)C(=O)N1CCC[C@H]1C(=O)N[C@@H](C)C(=O)N[C@@H](CC(=O)O)C(=O)N[C@@H](CC(=O)O)C(=O)N[C@@H](CC(=O)O)C(=O)N[C@@H](Cc1ccccc1)C(=O)N[C@@H](CCC(N)=O)C(=O)N[C@@H](CC(C)C)C(=O)N[C@@H](CCCNC(=N)N)C(N)=O`, the Ki was greater than 500 µM.

`CC[C@@H](C)[C@H](NC(=O)[C@H](Cc1ccc(O)cc1)NC(=O)[C@@H]1C[C@@H](O)CN1C(=O)[C@H](C)NC(=O)[C@H](CC(C)C)NC(=O)[C@H](C)NC(=O)[C@H](CCC(=O)O)NC(=O)[C@H](CC(C)C)NC(=O)[C@H](CC(=O)O)NC(=O)[C@H](CC(C)C)NC(=O)[C@@H](N)CC(=O)O)C(=O)N1CCC[C@H]1C(=O)N[C@@H](C)C(=O)N[C@@H](CC(=O)O)C(=O)N[C@@H](CC(=O)O)C(=O)N[C@@H](CC(=O)O)C(=O)N[C@@H](Cc1ccccc1)C(=O)N[C@@H](CCC(N)=O)C(=O)N[C@@H](CC(C)C)C(=O)N[C@@H](CCCN=C(N)N)C(N)=O`: the affinity corresponds to a Ki of 3.7 µM.

`CC[C@@H](C)[C@H](NC(=O)[C@H](Cc1ccc(O)cc1)NC(=O)[C@H](CCN)NC(=O)[C@H](C)NC(=O)[C@H](CC(C)C)NC(=O)[C@H](C)NC(=O)[C@H](CCC(=O)O)NC(=O)[C@H](CC(C)C)NC(=O)[C@H](CC(=O)O)NC(=O)[C@H](CC(C)C)NC(=O)[C@@H](N)CC(=O)O)C(=O)N1CCC[C@H]1C(=O)N[C@@H](C)C(=O)N[C@@H](CC(=O)O)C(=O)N[C@@H](CC(=O)O)C(=O)N[C@@H](CC(=O)O)C(=O)N[C@@H](Cc1ccccc1)C(=O)N[C@@H](CCC(N)=O)C(=O)N[C@@H](CC(C)C)C(=O)N[C@@H](CCCN=C(N)N)C(N)=O` yielded a Ki of 109 µM.

`CC[C@@H](C)[C@H](NC(=O)[C@H](Cc1ccc(O)cc1)NC(=O)[C@@H]1C[C@@H](F)CN1C(=O)[C@H](C)NC(=O)[C@H](CC(C)C)NC(=O)[C@H](C)NC(=O)[C@H](CCC(=O)O)NC(=O)[C@H](CC(C)C)NC(=O)[C@H](CC(=O)O)NC(=O)[C@H](CC(C)C)NC(=O)[C@@H](N)CC(=O)O)C(=O)N1CCC[C@H]1C(=O)N[C@@H](C)C(=O)N[C@@H](CC(=O)O)C(=O)N[C@@H](CC(=O)O)C(=O)N[C@@H](CC(=O)O)C(=O)N[C@@H](Cc1ccccc1)C(=O)N[C@@H](CCC(N)=O)C(=O)N[C@@H](CC(C)C)C(=O)N[C@@H](CCCNC(=N)N)C(N)=O` yielded a Ki of 5.8 µM.

Consider `CC[C@@H](C)[C@H](NC(=O)[C@H](Cc1ccc(O)cc1)NC(=O)[C@@H]1CCCCN1C(=O)[C@H](C)NC(=O)[C@H](CC(C)C)NC(=O)[C@H](C)NC(=O)[C@H](CCC(=O)O)NC(=O)[C@H](CC(C)C)NC(=O)[C@H](CC(=O)O)NC(=O)[C@H](CC(C)C)NC(=O)[C@@H](N)CC(=O)O)C(=O)N1CCC[C@H]1C(=O)N[C@@H](C)C(=O)N[C@@H](CC(=O)O)C(=O)N[C@@H](CC(=O)O)C(=O)N[C@@H](CC(=O)O)C(=O)N[C@@H](Cc1ccccc1)C(=O)N[C@@H](CCC(N)=O)C(=O)N[C@@H](CC(C)C)C(=O)N[C@@H](CCCN=C(N)N)C(N)=O`, for which the affinity, expressed as Ki, was 77 µM.

`CC[C@@H](C)[C@H](NC(=O)[C@H](Cc1ccc(O)cc1)NC(=O)[C@H](CC(N)=O)NC(=O)[C@H](C)NC(=O)[C@H](CC(C)C)NC(=O)[C@H](C)NC(=O)[C@H](CCC(=O)O)NC(=O)[C@H](CC(C)C)NC(=O)[C@H](CC(=O)O)NC(=O)[C@H](CC(C)C)NC(=O)[C@@H](N)CC(=O)O)C(=O)N1CCC[C@H]1C(=O)N[C@@H](C)C(=O)N[C@@H](CC(=O)O)C(=O)N[C@@H](CC(=O)O)C(=O)N[C@@H](CC(=O)O)C(=O)N[C@@H](Cc1ccccc1)C(=O)N[C@@H](CCC(N)=O)C(=O)N[C@@H](CC(C)C)C(=O)N[C@@H](CCCNC(=N)N)C(N)=O` gave an inhibitory constant (Ki) of 13 µM.

Take `CC[C@@H](C)[C@H](NC(=O)[C@H](Cc1ccc(O)cc1)NC(=O)[C@@H](NC(=O)[C@H](C)NC(=O)[C@H](CC(C)C)NC(=O)[C@H](C)NC(=O)[C@H](CCC(=O)O)NC(=O)[C@H](CC(C)C)NC(=O)[C@H](CC(=O)O)NC(=O)[C@H](CC(C)C)NC(=O)[C@@H](N)CC(=O)O)C(C)C)C(=O)N1CCC[C@H]1C(=O)N[C@@H](C)C(=O)N[C@@H](CC(=O)O)C(=O)N[C@@H](CC(=O)O)C(=O)N[C@@H](CC(=O)O)C(=O)N[C@@H](Cc1ccccc1)C(=O)N[C@@H](CCC(N)=O)C(=O)N[C@@H](CC(C)C)C(=O)N[C@@H](CCCNC(=N)N)C(N)=O`: the Ki stood at 16 µM.

For another assay, the system named is HeLa. The assay is described as follows: Induction of HIFalpha stabilization in human HeLa cells assessed as HIFalpha accumulation at 1 mM incubated under normoxic condition for 6 hrs by Western blot analysis. The format is functional, cell-based.
As to `CC[C@@H](C)[C@H](NC(=O)[C@H](Cc1ccc(O)cc1)NC(=O)[C@H](CC(C)C)NC(=O)[C@H](C)NC(=O)[C@H](CC(C)C)NC(=O)[C@H](C)NC(=O)[C@H](CCC(=O)O)NC(=O)[C@H](CC(C)C)NC(=O)[C@H](CC(=O)O)NC(=O)[C@H](CC(C)C)NC(=O)[C@@H](N)CC(=O)O)C(=O)N1CCC[C@H]1C(=O)N[C@@H](C)C(=O)N[C@@H](CC(=O)O)C(=O)N[C@@H](CC(=O)O)C(=O)N[C@@H](CC(=O)O)C(=O)N[C@@H](Cc1ccccc1)C(=O)N[C@@H](CCC(N)=O)C(=O)N[C@@H](CC(C)C)C(=O)N[C@@H](CCCNC(=N)N)C(N)=O`, the outcome was inactive.

Turning to `CC[C@@H](C)[C@H](NC(=O)[C@H](Cc1ccc(O)cc1)NC(=O)[C@@H]1C[C@@H](F)CN1C(=O)[C@H](C)NC(=O)[C@H](CC(C)C)NC(=O)[C@H](C)NC(=O)[C@H](CCC(=O)O)NC(=O)[C@H](CC(C)C)NC(=O)[C@H](CC(=O)O)NC(=O)[C@H](CC(C)C)NC(=O)[C@@H](N)CC(=O)O)C(=O)N1CCC[C@H]1C(=O)N[C@@H](C)C(=O)N[C@@H](CC(=O)O)C(=O)N[C@@H](CC(=O)O)C(=O)N[C@@H](CC(=O)O)C(=O)N[C@@H](Cc1ccccc1)C(=O)N[C@@H](CCC(N)=O)C(=O)N[C@@H](CC(C)C)C(=O)N[C@@H](CCCNC(=N)N)C(N)=O`, the result was Active.

Consider `CC[C@@H](C)[C@H](NC(=O)[C@H](Cc1ccc(O)cc1)NC(=O)[C@H](CCO)NC(=O)[C@H](C)NC(=O)[C@H](CC(C)C)NC(=O)[C@H](C)NC(=O)[C@H](CCC(=O)O)NC(=O)[C@H](CC(C)C)NC(=O)[C@H](CC(=O)O)NC(=O)[C@H](CC(C)C)NC(=O)[C@@H](N)CC(=O)O)C(=O)N1CCC[C@H]1C(=O)N[C@@H](C)C(=O)N[C@@H](CC(=O)O)C(=O)N[C@@H](CC(=O)O)C(=O)N[C@@H](CC(=O)O)C(=O)N[C@@H](Cc1ccccc1)C(=O)N[C@@H](CCC(N)=O)C(=O)N[C@@H](CC(C)C)C(=O)N[C@@H](CCCNC(=N)N)C(N)=O`, for which the result was Active.

`CC[C@@H](C)[C@H](NC(=O)[C@H](Cc1ccc(O)cc1)NC(=O)[C@@H]1C[C@@H](O)CN1C(=O)[C@H](C)NC(=O)[C@H](CC(C)C)NC(=O)[C@H](C)NC(=O)[C@H](CCC(=O)O)NC(=O)[C@H](CC(C)C)NC(=O)[C@H](CC(=O)O)NC(=O)[C@H](CC(C)C)NC(=O)[C@@H](N)CC(=O)O)C(=O)N1CCC[C@H]1C(=O)N[C@@H](C)C(=O)N[C@@H](CC(=O)O)C(=O)N[C@@H](CC(=O)O)C(=O)N[C@@H](CC(=O)O)C(=O)N[C@@H](Cc1ccccc1)C(=O)N[C@@H](CCC(N)=O)C(=O)N[C@@H](CC(C)C)C(=O)N[C@@H](CCCNC(=N)N)C(N)=O`: the result was Active.

The values above are taken from ChEMBL document CHEMBL1153040, “HIF-1alpha peptide derivatives with modifications at the hydroxyproline residue as activators of HIF-1alpha” (Bioorg Med Chem Lett, 2009).
